Measurements taken from US8492342B2, “Preprocalcitonin antigen T epitopes” (Institut Gustave Roussy, priority 2007, dated 2013).

Legend:
IGR-Heu tumor cells [1] = assay: Lysis (4 h 51Cr-release) by CTL clones of siRNA-electroporated IGR-Heu target cells; assay type: cell-based, human; settings: CTL Heu161, FIG. 5C
Procedure: (§1) FIG. 5: Processing of the preprocalcitonin16-25 antigenic peptide involves SP and SPP. A. IGR-Heu tumor cells were incubated for 2 h at 37° C. with the serine protease inhibitor dichloroisocoumarin (DCI) at 250 μM, before addition of anti-preprocalcitonin (left panel) or anti-α-actinin-4 (right panel) CTL clones. B. Analysis of SPP mRNA expression by real-time RT-PCR analysis. Total RNA extracted from IGR-Heu tumor cells, electroporated or not with siRNA targeting SPP (siRNA-S1, siRNA-S2), was reverse-transcribed and quantified by TaqMan as described in Materials and Methods. C. Effect of SPP extinction on tumor cell recognition. Lytic activity of CTL clones Heu161 and Heu127 against IGR-Heu target cells, electroporated or not with siRNA-S1, siRNA-S2 or control siRNA, determined by a conventional 4 h ^51Cr-release assay at the indicated E/T ratios. Two representative experiments of six are shown for CTL clone Heu161. D. Production of IFNγ by Heu161 and Heu127 CTL clones stimulated with tumor cells electroporated or not with siRNA-S1 or control siRNA. E. The preprocalcitonin16-25 antigenic peptide is located at the C-terminus of the signal sequence of the calcitonin hormone precursor. […]
(§2) Cytotoxic activity was measured by a conventional 4-h ^51Cr-release assay using triplicate cultures in round-bottomed 96-well plates. Percent specific cytotoxicity was calculated conventionally; SD were <5%. […]

SPP = SPP expression in IGR-Heu cells electroporated with siRNA (real-time RT-PCR; protein); assay type: cell-based, human; settings: for SPP expression at RNA level: 50 nM siRNA, 72 h, FIG. 5B; for SPP expression at protein level: data not shown
Procedure: FIG. 5: Processing of the preprocalcitonin16-25 antigenic peptide involves SP and SPP. A. IGR-Heu tumor cells were incubated for 2 h at 37° C. with the serine protease inhibitor dichloroisocoumarin (DCI) at 250 μM, before addition of anti-preprocalcitonin (left panel) or anti-α-actinin-4 (right panel) CTL clones. B. Analysis of SPP mRNA expression by real-time RT-PCR analysis. Total RNA extracted from IGR-Heu tumor cells, electroporated or not with siRNA targeting SPP (siRNA-S1, siRNA-S2), was reverse-transcribed and quantified by TaqMan as described in Materials and Methods. C. Effect of SPP extinction on tumor cell recognition. Lytic activity of CTL clones Heu161 and Heu127 against IGR-Heu target cells, electroporated or not with siRNA-S1, siRNA-S2 or control siRNA, determined by a conventional 4 h ^51Cr-release assay at the indicated E/T ratios. Two representative experiments of six are shown for CTL clone Heu161. D. Production of IFNγ by Heu161 and Heu127 CTL clones stimulated with tumor cells electroporated or not with siRNA-S1 or control siRNA. E. The preprocalcitonin16-25 antigenic peptide is located at the C-terminus of the signal sequence of the calcitonin hormone precursor. The optimal peptide recognized by CTL clone Heu161 is boxed. Arrows indicate the signal peptidase (SP) and the approximate signal peptide peptidase (SPP) cleavage sites. The n, h and c regions in the preprocalcitonin signal peptide were predicted using SignalP 3.0 software.
For SPP inhibition, we first tried the cysteine protease inhibitor Z-LL2 ketone (Calbiochem, Darmstadt, Germany), which was reported to specifically block SPP activity (WEIHOFEN et al., J Biol Chem, 275, 30951-6, 2000). No conclusive results were obtained in functional assays. We thus used siRNA targeting human SPP, siRNA-S1 (5-GACAUGCCUGAAACAAUCAtt-3; SEQ ID NO: 3) and siRNA-S2 (5-UGAUUGUUUCAGGCAUGUCtg-3; SEQ ID NO: 4), purchased from Ambion (Austin, Tex. USA). Non-targeting siRNA (Ambion) were used as negative control (siRNA Control). Briefly, IGR-Heu cells were transfected by electroporation with 50 nM siRNA in a Gene Pulser Xcell Electroporation System (Bio-Rad; 300 V, […]) as previously described (LE FLOC'H et al., J Exp Med, 2007) and then allowed to grow for 72 h.
For SPP mRNA expression, total RNA from IGR-Heu cells, transfected or not with siRNA-S 1 and siRNA-S2 targeting SPP, was extracted, reverse-transcribed and quantified by real-time RT-PCR analysis (TaqMan). PCR primers and probe were designed by Applied Biosystems and used according to the manufacturer's recommendations. The amount of RNA sample was normalized by amplification of an endogenous control (18S). […]

IGR-Heu tumor cells [2] = assay: SP inhibition: lysis by CTL clones of DCI-treated IGR-Heu tumor cells; assay type: cell-based, human; settings: pre-incubation of IGR-Heu, 250 μM, 2 h 37° C.; FIG. 5A
Procedure: as §1, §2

CTL clone Heu161 = assay: CTL stimulation (TNF release) by synthetic peptides loaded on HLA-A2+ MZ2-MEL.3.1 melanoma cells; assay type: cell-based, human
Procedure: FIG. 3: Identification of the antigenic peptide recognized by CTL clone Heu161. A. CTL stimulation with purified synthetic peptides. Peptides were loaded on allogeneic HLA-A2^+ MZ2-MEL.3.1 melanoma cells for 60 min at room temperature before addition of CTL clone Heu161. TNF release was measured 16 h later. Empty circles represent the results obtained with peptide SEQ ID NO: 1, full circles represent the results obtained with peptide SEQ ID NO: 2, empty squares represent the results obtained with peptide SEQ ID NO: 24, full squares represent the results obtained with peptide SEQ ID NO: 25 and empty diamonds represent the results obtained with peptide SEQ ID NO: 26. B. Lytic activity of CTL clone on peptide-pulsed cells. ^51Cr-labeled Heu-EBV-B cells were incubated over 60 min with the indicated concentrations of peptides before addition of CTL clone Heu161 at an E/T cell ratio of 10:1. Chromium release was measured after 4 h. Empty circles represent the results obtained with peptide SEQ ID NO: 1, full circles represent the results obtained with peptide SEQ ID NO: 2
TNFβ was detected by measuring the cytotoxicity of the culture medium on TNF-sensitive WEHI-164c13 cells with a MTT colorimetric assay (ESPEVIK & NISSEN-MEYER, J Immunol Methods, 95, 99-105, 1986).
We then prepared a series of calcitonin cDNA fragments truncated at their 5′ end and engineered to contain an initiation codon and a Kozak consensus sequence. […] Further trimming narrowed down the peptide-encoding region to residues 9-38 (FIG. 2B). Among a set of overlapping peptides covering this region, only two were recognized by CTL clone Heu161: VLLQAGSLHA (SEQ ID NO: 1) and LVLLQAGSLHA (SEQ ID NO: 2), which are identical, but with an additional leucine in the latter peptide. […] In a lysis assay, the decamer was slightly more efficient than the 11-mer peptide by a factor of about three (FIG. 3B). We concluded that the optimal antigenic peptide recognized by CTL clone Heu161 was VLLQAGSLHA (SEQ ID NO: 1) or preprocalcitonin16-25. This peptide corresponds exactly to the C-terminal part of the preprocalcitonin signal peptide (LE MOULLEC et al., FEBS Lett, 167, 93-7, 1984).

human TAP = biological target: T1, human TAP (Homo sapiens, UniProt Q03518+Q03519); assay: TAP involvement: CTL recognition of 293-EBNA transfectants cotransfected with ICP47; assay type: cell-based
T1 construct: endogenous in cells; host or cells: 293-EBNA cells
T1 sequence (Q03518 1-748): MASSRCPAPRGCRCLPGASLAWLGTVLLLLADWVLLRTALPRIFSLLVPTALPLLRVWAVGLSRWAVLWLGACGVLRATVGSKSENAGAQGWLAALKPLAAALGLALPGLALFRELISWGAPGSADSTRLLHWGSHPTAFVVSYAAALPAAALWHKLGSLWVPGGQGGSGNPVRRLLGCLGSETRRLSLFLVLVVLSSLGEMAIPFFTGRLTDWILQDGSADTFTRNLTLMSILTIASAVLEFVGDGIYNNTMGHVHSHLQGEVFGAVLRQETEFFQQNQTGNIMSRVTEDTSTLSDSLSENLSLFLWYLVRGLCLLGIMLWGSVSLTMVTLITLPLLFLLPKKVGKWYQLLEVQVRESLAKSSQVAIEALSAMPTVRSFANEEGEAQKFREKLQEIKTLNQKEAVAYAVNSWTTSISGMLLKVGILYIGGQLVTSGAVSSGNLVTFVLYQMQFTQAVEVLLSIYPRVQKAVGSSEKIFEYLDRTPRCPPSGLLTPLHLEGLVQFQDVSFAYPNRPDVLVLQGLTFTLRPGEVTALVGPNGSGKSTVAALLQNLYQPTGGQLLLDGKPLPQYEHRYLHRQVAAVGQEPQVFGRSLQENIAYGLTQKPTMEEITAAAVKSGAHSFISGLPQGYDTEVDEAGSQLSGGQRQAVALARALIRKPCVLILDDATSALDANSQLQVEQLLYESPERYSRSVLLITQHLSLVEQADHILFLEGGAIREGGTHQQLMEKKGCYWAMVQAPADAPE
T1 sequence (Q03519 1-686): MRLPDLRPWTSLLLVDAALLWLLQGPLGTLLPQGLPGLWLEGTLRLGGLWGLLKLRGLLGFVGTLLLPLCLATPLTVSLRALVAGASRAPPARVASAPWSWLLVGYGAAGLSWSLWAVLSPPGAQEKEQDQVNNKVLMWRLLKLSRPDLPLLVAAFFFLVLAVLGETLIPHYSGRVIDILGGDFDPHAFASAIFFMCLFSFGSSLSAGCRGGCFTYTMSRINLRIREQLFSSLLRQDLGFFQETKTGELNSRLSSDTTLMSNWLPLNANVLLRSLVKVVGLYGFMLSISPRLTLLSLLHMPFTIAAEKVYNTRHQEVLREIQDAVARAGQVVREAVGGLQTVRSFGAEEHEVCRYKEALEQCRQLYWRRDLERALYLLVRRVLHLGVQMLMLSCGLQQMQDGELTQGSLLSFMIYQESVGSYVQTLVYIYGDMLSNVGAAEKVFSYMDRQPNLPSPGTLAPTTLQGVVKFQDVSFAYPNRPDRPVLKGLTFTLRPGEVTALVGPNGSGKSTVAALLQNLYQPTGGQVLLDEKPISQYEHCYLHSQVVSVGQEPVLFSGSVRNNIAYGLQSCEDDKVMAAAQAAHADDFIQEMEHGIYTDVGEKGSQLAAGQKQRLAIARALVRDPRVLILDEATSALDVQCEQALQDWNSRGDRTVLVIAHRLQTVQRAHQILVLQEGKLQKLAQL
Procedure: FIG. 4: Processing of the preprocalcitonin16-25 peptide is proteasome- and TAP-independent. A. IGR-Heu target cells were incubated for 2 h at 37° C. in the presence or absence of the proteasome-specific inhibitor epoxomicin, and then Heu161 cells were added. The autologous Heu127 clone, recognizing on IGR-Heu a proteasome-dependent mutated α-actinin-4 peptide, was included as a positive control. TNFβ released in medium after 24 h of culture was measured as above. B. 293-EBNA cells were cotransfected with pCEP4 containing either cDNA 150 (upper panel) or the mutated α-actinin-4 cDNA (lower panel), with pcDNA3.1 containing an HLA-A*0201 construct, and with various amounts of vector pBJi-neo containing IPC47 cDNA. CTL clones Heu161 (upper panel) or Heu127 (lower panel) were then added. Controls included 293-EBNA cells transfected with HLA-A2 or pBJi-neo-IPC47 alone, and incubation of transfectants with either preprocalcitonin or α-actinin-4 peptides. Data shown are representative of four independent experiments.
The involvement of TAP was tested by cotransfecting into 293-EBNA cells constructs coding for the antigenic peptide, for HLA-A2, and for the immediate-early protein ICP47 of herpes simplex virus type 1, which binds to and inhibits human TAP (BANKS et al., Virology, 200, 236-45, 1994).

Row | Molecule | sensitivity of tumor cells to lysis by anti-preprocalcitonin CTL clone (IGR-Heu tumor cells [1]) | SPP expression at RNA level (SPP) | SPP expression at protein level (SPP) | further results
1 | 5-GACAUGCCUGAAACAAUCAtt-3 [siRNA-S1] | strong decrease | specifically inhibit SPP expression | specifically inhibit SPP expression | 
2 | O=c1oc(Cl)c(Cl)c2ccccc12 [DCI, dichloroisocoumarin] |  |  |  | effect on lysis by anti-preprocalcitonin CTL clone (IGR-Heu tumor cells [2]): totally resistant to lysis; effect on recognition by anti-α-actinin-4 CTL clone (IGR-Heu tumor cells [2]): only a moderate effect
3 | 5-UGAUUGUUUCAGGCAUGUCtg-3 [siRNA-S2] | strong decrease | specifically inhibit SPP expression | specifically inhibit SPP expression | 
4 | LVLLQAGSLHA [SEQ ID NO: 2] |  |  |  | EC50 (CTL clone Heu161; HLA-A2+ melanoma cells loaded 60 min, TNF release after 16 h, FIG. 3A, read-out: peptide concentration giving half-maximal effect (sensitization to recognition by CTL Heu161)): ~10 nM; recognition of peptide by CTL clone Heu161 (CTL clone Heu161; overlapping synthetic peptides of preprocalcitonin): recognized
5 | ICP47: immediate-early protein ICP47 of herpes simplex virus type 1, which binds to and inhibits human TAP; expressed by cotransfection |  |  |  | effect on recognition of transfectants by anti-preprocalcitonin CTLs (human TAP; cDNA 150 + HLA-A2, FIG. 4B): no detectable effect; effect on recognition of transfectants by anti-α-actinin-4 CTL clone (human TAP; mutated α-actinin-4 cDNA + HLA-A2, FIG. 4B): strongly inhibited
